Results on 15 molecules are retold here after US9796711B2, “Substituted pyrazolo[3,4-b]pyridin-6-carboxylic acids and method of use” (AbbVie S.àr.l., priority 2015, dated 2017).

pEC50: −log10 of the molar value.

For test [1], the target named is T1, ΔF508-CFTR (Homo sapiens, UniProt P13569, DEL508-508).
T1 construct: host or cells: CFBE41o-, doxycycline-inducible
The experiment in a line: CFTR cell surface levels using HRP-tagged ΔF508-CFTR expressing CFBE cells, in the presence of a co-corrector. The test is classed as cell-based. In outline:
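Cells were seeded with 0.5 μg/mL doxycycline and held 68 h at 37 °C. Test compounds plus 3 μM co-corrector (final 0.1% DMSO) were then added for 20 h at 33 °C. Washed cells received HRP substrate, and luminescence was normalized between DMSO and 3 μM co-corrector controls.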

The target of test [2] is T1, ΔF508-CFTR. As to the kind of experiment: CFTR cell surface levels using HRP-tagged ΔF508-CFTR expressing CFBE cells, intrinsic corrector capacity. The test is classed as cell-based. Put shortly:
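Here the cells express ΔF508-CFTR with horseradish peroxidase inserted in extracellular loop 4, so only rescued channel at the surface gives luminescent signal. Compounds act on their own, 20 h at the reduced temperature of 33 °C; values are percent activity relative to DMSO and a 3 μM corrector.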

Where [3] appears, read: HRP-tagged ΔF508-CFTR expressing CFBE cells, in the presence of 3 μM co-corrector.
Where [4] appears, read: HRP-tagged ΔF508-CFTR expressing CFBE cells, in the presence of 3 μM co-corrector, read-out: EC50.
Setting [5] is: HRP-tagged ΔF508-CFTR expressing CFBE cells, intrinsic corrector capacity (no co-corrector), 33° C., 20 hours.
The mark [6] stands for this setting: HRP-tagged ΔF508-CFTR expressing CFBE cells, intrinsic corrector capacity (no co-corrector), 33° C., 20 hours, read-out: EC50.
Where [7] appears, read: HRP-tagged ΔF508-CFTR CFBE41o- cells, compounds alone (intrinsic corrector capacity), 20 hours at 33° C., positive control 3 μM corrector.
The mark [8] stands for this setting: HRP-tagged ΔF508-CFTR CFBE41o- cells, compounds alone (intrinsic corrector capacity), 20 hours at 33° C., read-out: EC50.

T1 sequence (P13569 with tags, fused parts or gaps DEL508-508): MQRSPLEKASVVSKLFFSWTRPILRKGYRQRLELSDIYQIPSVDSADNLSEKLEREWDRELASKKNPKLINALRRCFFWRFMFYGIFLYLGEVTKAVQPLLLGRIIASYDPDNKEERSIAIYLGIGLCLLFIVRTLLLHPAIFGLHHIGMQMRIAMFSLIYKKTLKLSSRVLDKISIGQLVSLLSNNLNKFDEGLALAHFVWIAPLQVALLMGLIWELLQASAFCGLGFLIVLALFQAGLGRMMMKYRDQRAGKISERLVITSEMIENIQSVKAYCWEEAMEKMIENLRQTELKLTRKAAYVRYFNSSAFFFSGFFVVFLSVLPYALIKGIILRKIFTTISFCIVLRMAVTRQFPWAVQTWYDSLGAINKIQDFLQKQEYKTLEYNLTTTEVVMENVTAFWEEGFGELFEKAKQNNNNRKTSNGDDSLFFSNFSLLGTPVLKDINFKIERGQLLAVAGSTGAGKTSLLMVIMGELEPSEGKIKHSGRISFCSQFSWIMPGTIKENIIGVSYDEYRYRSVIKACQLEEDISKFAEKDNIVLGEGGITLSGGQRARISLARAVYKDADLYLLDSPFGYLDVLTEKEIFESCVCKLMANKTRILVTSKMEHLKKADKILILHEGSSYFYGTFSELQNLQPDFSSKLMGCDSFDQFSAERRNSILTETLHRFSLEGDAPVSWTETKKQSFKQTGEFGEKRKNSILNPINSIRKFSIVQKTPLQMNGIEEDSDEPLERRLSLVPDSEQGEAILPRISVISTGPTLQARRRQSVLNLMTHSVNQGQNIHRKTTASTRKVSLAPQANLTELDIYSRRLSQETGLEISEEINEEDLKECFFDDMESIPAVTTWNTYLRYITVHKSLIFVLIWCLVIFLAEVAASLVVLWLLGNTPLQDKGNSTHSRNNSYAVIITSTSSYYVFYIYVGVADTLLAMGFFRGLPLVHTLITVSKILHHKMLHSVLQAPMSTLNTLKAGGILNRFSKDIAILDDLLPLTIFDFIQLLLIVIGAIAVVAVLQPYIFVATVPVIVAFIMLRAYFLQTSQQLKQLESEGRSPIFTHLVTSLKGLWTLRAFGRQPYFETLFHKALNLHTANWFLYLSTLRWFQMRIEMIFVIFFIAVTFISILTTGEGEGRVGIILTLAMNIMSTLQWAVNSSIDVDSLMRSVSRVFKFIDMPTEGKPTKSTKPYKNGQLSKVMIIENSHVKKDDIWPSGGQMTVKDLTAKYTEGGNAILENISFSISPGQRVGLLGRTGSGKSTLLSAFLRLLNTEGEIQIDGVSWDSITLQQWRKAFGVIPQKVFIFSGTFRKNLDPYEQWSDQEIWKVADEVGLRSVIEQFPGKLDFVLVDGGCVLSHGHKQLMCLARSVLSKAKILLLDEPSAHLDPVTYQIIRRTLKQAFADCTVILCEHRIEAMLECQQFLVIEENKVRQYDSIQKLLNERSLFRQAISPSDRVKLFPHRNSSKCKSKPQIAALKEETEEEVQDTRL

Broadly, the pEC50 is −log10 of the EC50, conventionally taken in molar units. For the molecule `COCCN1CCN(c2ccc(-c3cc(C(=O)O)nc4c3c(C3CCC3)nn4C3CCCCC3)cn2)CC1` [compound 878, 3-cyclobutyl-1-cyclohexyl-4-{6-[4-(2-methoxyethyl)piperazin-1-yl]pyridin-3-yl}-1H-pyrazolo[3,4-b]pyridine-6-carboxylic acid], the “% Activation” value at ΔF508-CFTR [1] (setting [3]) is on record as 391.3%; at ΔF508-CFTR [2] (setting [5]), 181.05%. Further, the pEC50 at ΔF508-CFTR [1] (setting [4]) was 7.00; at ΔF508-CFTR [2] (setting [6]), 6.65.
The corresponding values for `O=C(O)c1cc(N2CCC3(CC2)CCN(C2CC2)CC3)c2c(C3CCC3)nn(-c3ccc(F)cc3)c2n1` [compound 887, 3-cyclobutyl-4-(9-cyclopropyl-3,9-diazaspiro[5.5]undecan-3-yl)-1-(4-fluorophenyl)-1H-pyrazolo[3,4-b]pyridine-6-carboxylic acid] are 375.13%, 191.35%, 6.69 and 6.44.
As for `COCCC1CCN(c2cc(C(=O)O)nc3c2c(C(C)C)nn3-c2cccc(C)c2)CC1` [compound 228, 4-[4-(2-methoxyethyl)piperidin-1-yl]-1-(3-methylphenyl)-3-(propan-2-yl)-1H-pyrazolo[3,4-b]pyridine-6-carboxylic acid], the “% Activation” value at ΔF508-CFTR [1] (setting [3]) is recorded as 475.1%; on ΔF508-CFTR [2] (setting [7]), 297.15%. The pEC50 at ΔF508-CFTR [1] (setting [4]) was 6.40; at ΔF508-CFTR [2] (setting [8]), 6.17.
`COC[C@H]1CCN(CC2CCN(c3cc(C(=O)O)nc4c3c(C3CCC3)nn4-c3ccccc3)CC2)C1` [compound 804, 3-cyclobutyl-4-(4-{[(3S)-3-(methoxymethyl)pyrrolidin-1-yl]methyl}piperidin-1-yl)-1-phenyl-1H-pyrazolo[3,4-b]pyridine-6-carboxylic acid]: the “% Activation” value stood at 365% at ΔF508-CFTR [1] (setting [3]) and 191.15% at ΔF508-CFTR [2] (setting [5]). Besides, the pEC50 on ΔF508-CFTR [1] (setting [4]) is 6.64; at ΔF508-CFTR [2] (setting [6]), 6.31.
The corresponding values for `CN(C)C[C@@H](F)C1CCN(c2cc(C(=O)O)nc3c2c(C2CCC2)nn3-c2ccccc2)CC1` [compound 456, 3-cyclobutyl-4-{4-[(1S)-2-(dimethylamino)-1-fluoroethyl]piperidin-1-yl}-1-phenyl-1H-pyrazolo[3,4-b]pyridine-6-carboxylic acid] are 414.5%, 253.65%, 6.47 and 6.07.
As to `CC1CCN(CCC2CCN(c3cc(C(=O)O)nc4c3c(C3CCC3)nn4-c3ccccc3)CC2)CC1` [compound 687, 3-cyclobutyl-4-{4-[2-(4-methylpiperidin-1-yl)ethyl]piperidin-1-yl}-1-phenyl-1H-pyrazolo[3,4-b]pyridine-6-carboxylic acid], the “% Activation” value turned out to be 454% at ΔF508-CFTR [1] (setting [3]) and 264.95% on ΔF508-CFTR [2] (setting [5]). For the same molecule, the pEC50 is 7.05 at ΔF508-CFTR [1] (setting [4]) and 6.77 on ΔF508-CFTR [2] (setting [6]).
The corresponding values for `CC(C)c1nn(-c2ccc(F)cc2)c2nc(C(=O)O)cc(N3CCC(C(C)(C)O)CC3)c12` [compound 656, 1-(4-fluorophenyl)-4-[4-(2-hydroxypropan-2-yl)piperidin-1-yl]-3-(propan-2-yl)-1H-pyrazolo[3,4-b]pyridine-6-carboxylic acid] are 415.7%, 287.7%, 6.72 and 6.36.
Turning to `CC(C)c1nn(-c2cccc(N3CCOCC3)c2)c2nc(C(=O)O)cc(-c3ccc(N(C)C)nc3)c12` [compound 89, 4-[6-(dimethylamino)pyridin-3-yl]-1-[3-(morpholin-4-yl)phenyl]-3-(propan-2-yl)-1H-pyrazolo[3,4-b]pyridine-6-carboxylic acid], the entries for the “% Activation” value on ΔF508-CFTR [1] (setting [3]) and on ΔF508-CFTR [2] (setting [7]) were 482.05% and 310.15%, respectively. Also, the pEC50 was 5.91 at ΔF508-CFTR [1] (setting [4]) and 5.60 at ΔF508-CFTR [2] (setting [8]).
Turning to `O=C(O)c1cc(N2CCC(CCN3CCOCC3)CC2)c2c(C3CCC3)nn(-c3ccccc3)c2n1` [compound 575, 3-cyclobutyl-4-{4-[2-(morpholin-4-yl)ethyl]piperidin-1-yl}-1-phenyl-1H-pyrazolo[3,4-b]pyridine-6-carboxylic acid], the negative-log EC50 (pEC50) on ΔF508-CFTR [1] was 6.68; at ΔF508-CFTR [2], 6.29. Moreover, the “% Activation” value came out at 431.9% at ΔF508-CFTR [1] (setting [3]) and 268.4% at ΔF508-CFTR [2] (setting [5]).
Take `CC(C)c1nn(-c2ccnc(N3CCOCC3)c2)c2nc(C(=O)O)cc(-c3ccc(N4CCOCC4)cc3)c12` [compound 201, 4-[4-(morpholin-4-yl)phenyl]-1-[2-(morpholin-4-yl)pyridin-4-yl]-3-(propan-2-yl)-1H-pyrazolo[3,4-b]pyridine-6-carboxylic acid]: the “% Activation” value was 439.85% at ΔF508-CFTR [1] (setting [3]) and 251.3% at ΔF508-CFTR [2] (setting [7]). The pEC50 was 6.54 at ΔF508-CFTR [1] (setting [4]) and 6.22 at ΔF508-CFTR [2] (setting [8]).
Take `CC(C)c1nn(-c2ccc(F)cc2)c2nc(C(=O)O)cc(N3CCC(C(C)N4CCCC4)CC3)c12` (stereo not drawn) [compound 789, 1-(4-fluorophenyl)-3-(propan-2-yl)-4-{4-[1-(pyrrolidin-1-yl)ethyl]piperidin-1-yl}-1H-pyrazolo[3,4-b]pyridine-6-carboxylic acid]: the “% Activation” value turned out to be 460.95% at ΔF508-CFTR [1] (setting [3]) and 257.05% at ΔF508-CFTR [2] (setting [5]). Moreover, the results for the pEC50 at ΔF508-CFTR [1] (setting [4]) and on ΔF508-CFTR [2] (setting [6]) were 6.04 and 6.32, respectively.
Consider `CC(C)Oc1cccc(-n2nc(C3CCC3)c3c(N4CCC(N5CCOCC5)CC4)cc(C(=O)O)nc32)n1` [compound 924, 3-cyclobutyl-4-[4-(morpholin-4-yl)piperidin-1-yl]-1-{6-[(propan-2-yl)oxy]pyridin-2-yl}-1H-pyrazolo[3,4-b]pyridine-6-carboxylic acid], for which the “% Activation” value came to 609.82% at ΔF508-CFTR [1] (setting [3]) and 374.45% on ΔF508-CFTR [2] (HRP-tagged ΔF508-CFTR CFBE cells, compound alone (intrinsic corrector capacity), 20 hours at 33° C.). In addition, the pEC50 on ΔF508-CFTR [1] (setting [4]) was 6.86; at ΔF508-CFTR [2] (HRP-tagged ΔF508-CFTR CFBE cells, compound alone (intrinsic corrector capacity), 20 hours at 33° C., read-out: EC50), 6.38.
In the case of `CC(C)c1nn(C2CCCCC2)c2nc(C(=O)O)cc(-c3ccc(N(C)C4CCOCC4)nc3)c12` [compound 169, 1-cyclohexyl-4-{6-[methyl(oxan-4-yl)amino]pyridin-3-yl}-3-(propan-2-yl)-1H-pyrazolo[3,4-b]pyridine-6-carboxylic acid], the “% Activation” value at ΔF508-CFTR [1] (setting [3]) amounted to 436.5%; at ΔF508-CFTR [2] (setting [7]), 217.88%. For the same molecule, the pEC50 on ΔF508-CFTR [1] (setting [4]) was 6.52; on ΔF508-CFTR [2] (setting [8]), 6.35.
Take `CC(C1CCN(c2cc(C(=O)O)nc3c2c(C2CCC2)nn3-c2ccccc2)CC1)N1CCOCC1` (stereo not drawn) [compound 683, 3-cyclobutyl-4-{4-[1-(morpholin-4-yl)ethyl]piperidin-1-yl}-1-phenyl-1H-pyrazolo[3,4-b]pyridine-6-carboxylic acid]: the figures for the “% Activation” value on ΔF508-CFTR [1] (setting [3]) and at ΔF508-CFTR [2] (setting [5]) were 600.53% and 395.1%, respectively. Also, the pEC50 was 7.22 on ΔF508-CFTR [1] (setting [4]) and 6.85 at ΔF508-CFTR [2] (setting [6]).
The corresponding values for `CCOC(=O)N1CCN(c2cc(C(=O)O)nc3c2c(C2CCC2)nn3-c2ccccc2)CC1` [compound 539, 3-cyclobutyl-4-[4-(ethoxycarbonyl)piperazin-1-yl]-1-phenyl-1H-pyrazolo[3,4-b]pyridine-6-carboxylic acid] are 564.8%, 366.3%, 6.70 and 6.43.
